Structures are written as SMILES.

The record followed here is patent US20020137750A1, “Amidine derivatives which are inhibitors of nitric oxide synthase” (priority 1999, published 2002).

`N=C(Nc1ccc(OC2CCCC2)c(CN2CCC[C@@H]2CO)c1)c1cccs1` [Example 21, N-(4-(Cyclopentyloxy)-3{[(2R)-2-(Hydroxymethyl)Pyrrolidinyl]Methyl}Phenyl)-2-Thiophenecarboximidamide] came in with a melting point of 126 to 127 °C.
Next, `N=C(Nc1ccc(C2CCCC2)c(CN2CCC[C@H]2CO)c1)c1cccs1` [Example 31, N-(4-Cyclopentyl-3-{[(2S)-2-(Hydroxymethyl)Pyrrolidinyl]Methyl}Phenyl)-2-Thiophenecarboximidamide]: 132 to 133 °C.
Then `CN(CCO)Cc1cc(NC(=N)c2cccs2)ccc1C1CCCC1` [Example 30, N-(4-Cyclopentyl-3-{[(2-Hydroxyethyl)(Methyl)Amino]Methyl}Phenyl)-2-Thiophenecarboximidamide], with 116 to 118 °C.

As usually defined, the melting point is the temperature of the solid-liquid transition.
